From the supplement of paper PMC10307832

Assays:
Test in all cases: relative viability (nuclei count vs DMSO), 5 days (fraction); higher = more cells survive
17-AAG + Decitabine = compound: C=CCNC1=C2C[C@@H](C)C[C@H](OC)[C@H](O)[C@@H](C)/C=C(\C)[C@H](OC(N)=O)[C@@H](OC)/C=C\C=C(/C)C(=O)NC(=CC1=O)C2=O [17-AAG] + Nc1ncn([C@H]2C[C@H](O)[C@@H](CO)O2)c(=O)n1 [Decitabine] (partner 2 µM)
Outline: (§1)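 Medians of duplicate plates are given as relative viability. That measure is the nuclei count in treated wells divided by the count in vehicle wells. Counts were taken on 4× images of lung cancer cell lines in 1536-well plates, 5 days after pin-tool dosing the day after seeding with one drug alone or a fixed anchor-drug dose plus five library-drug doses (not always all listed) in √10 steps.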

17-AAG + AZD7762 = compound: C=CCNC1=C2C[C@@H](C)C[C@H](OC)[C@H](O)[C@@H](C)/C=C(\C)[C@H](OC(N)=O)[C@@H](OC)/C=C\C=C(/C)C(=O)NC(=CC1=O)C2=O [17-AAG] + NC(=O)Nc1cc(-c2cccc(F)c2)sc1C(=O)N[C@H]1CCCNC1 [AZD7762] (partner 0.2 µM)
Outline: as §1

17-AAG + Olaparib = compound: C=CCNC1=C2C[C@@H](C)C[C@H](OC)[C@H](O)[C@@H](C)/C=C(\C)[C@H](OC(N)=O)[C@@H](OC)/C=C\C=C(/C)C(=O)NC(=CC1=O)C2=O [17-AAG] + O=C(c1cc(Cc2n[nH]c(=O)c3ccccc23)ccc1F)N1CCN(C(=O)C2CC2)CC1 [Olaparib] (partner 8 µM)
Outline: as §1

17-AAG + Lapatinib = compound: C=CCNC1=C2C[C@@H](C)C[C@H](OC)[C@H](O)[C@@H](C)/C=C(\C)[C@H](OC(N)=O)[C@@H](OC)/C=C\C=C(/C)C(=O)NC(=CC1=O)C2=O [17-AAG] + CS(=O)(=O)CCNCc1ccc(-c2ccc3ncnc(Nc4ccc(OCc5cccc(F)c5)c(Cl)c4)c3c2)o1 [Lapatinib] (partner 2 µM)
Outline: as §1

Cell Line | relative viability (17-AAG + Decitabine; first compound 0.00128 µM) | relative viability (17-AAG + Decitabine; first compound 0.004048 µM) | relative viability (17-AAG + Decitabine; first compound 0.0128 µM) | relative viability (17-AAG + Decitabine; first compound 0.04048 µM) | relative viability (17-AAG + Decitabine; first compound 0.128 µM) | relative viability (17-AAG + AZD7762; first compound 0.00128 µM) | relative viability (17-AAG + AZD7762; first compound 0.004048 µM) | relative viability (17-AAG + AZD7762; first compound 0.0128 µM) | relative viability (17-AAG + AZD7762; first compound 0.04048 µM) | relative viability (17-AAG + AZD7762; first compound 0.128 µM) | relative viability (17-AAG + Olaparib; first compound 0.00128 µM) | relative viability (17-AAG + Olaparib; first compound 0.004048 µM) | relative viability (17-AAG + Olaparib; first compound 0.0128 µM) | relative viability (17-AAG + Olaparib; first compound 0.04048 µM) | relative viability (17-AAG + Olaparib; first compound 0.128 µM) | relative viability (17-AAG + Lapatinib; first compound 0.00128 µM) | relative viability (17-AAG + Lapatinib; first compound 0.004048 µM) | relative viability (17-AAG + Lapatinib; first compound 0.0128 µM) | relative viability (17-AAG + Lapatinib; first compound 0.04048 µM) | relative viability (17-AAG + Lapatinib; first compound 0.128 µM)
HCC-366 | 0.306 | 0.393 | 0.08 | 0.0528 | 0.0434 | 0.281 | 0.402 | 0.045 | 0.0325 | 0.0323 | 0.414 | 0.357 | 0.0266 | 0.0306 | 0.0265 | 0.858 | 0.691 | 0.0214 | 0.0204 | 0.0219
HCC-827 | 0.279 | 0.363 | 0.308 |  | 0.306 | 0.216 | 0.238 | 0.163 |  | 0.164 | 0.698 | 0.755 | 0.769 |  | 0.331 | 0.225 | 0.216 | 0.193 |  | 0.259
IA-LM |  |  |  |  |  |  |  |  |  |  | 0.89 | 0.919 | 0.68 | 0.179 | 0.0981 | 1.06 | 0.736 | 0.479 | 0.502 | 0.0825
LCLC-103H | 0.757 | 0.715 | 0.731 | 0.812 | 0.797 | 0.756 | 0.755 | 0.742 | 0.834 | 0.835 | 0.841 | 0.745 | 0.755 | 0.823 | 0.831 |  |  |  |  | 
NCI-H441 | 0.275 | 0.219 | 0.121 | 0.118 | 0.137 | 1.07 | 1.02 | 0.669 | 0.118 | 0.108 | 0.555 | 0.547 | 0.208 | 0.135 | 0.124 |  |  |  |  | 
NCI-H520 | 0.364 | 0.555 | 0.411 | 0.16 | 0.171 |  |  |  |  |  | 0.34 | 0.232 | 0.162 | 0.136 | 0.12 | 0.797 | 0.654 | 0.396 | 0.132 | 0.112
NCI-H522 | 0.668 | 0.769 | 0.686 | 0.584 | 0.431 | 0.845 | 0.857 | 0.569 | 0.51 | 0.393 | 0.517 | 0.878 | 0.505 | 0.485 | 0.399 |  |  |  |  | 
NCI-H661 | 0.496 | 0.552 | 0.473 | 0.341 | 0.257 |  |  |  |  |  | 0.804 | 0.716 | 0.529 | 0.333 | 0.253 | 0.445 | 0.436 | 0.47 | 0.416 | 0.259
NCI-H1563 |  |  |  |  |  |  |  |  |  |  |  |  |  |  |  | 0.878 | 0.729 | 0.567 | 0.606 | 0.618
NCI-H1648 |  | 0.522 | 0.547 | 0.38 | 0.324 |  | 0.854 | 0.558 | 0.626 | 0.325 |  | 0.716 | 0.921 | 0.9 | 0.317 |  |  |  |  | 
NCI-H1650 | 0.384 | 0.33 | 0.185 | 0.165 | 0.134 |  |  |  |  |  | 0.721 | 0.636 | 0.147 | 0.156 | 0.113 | 0.624 | 0.303 | 0.133 | 0.171 | 0.175
